Laboratory results published in US20150025077A1 (COYOTE PHARMACEUTICALS, INC., priority 2012, published 2015).

Assays:
HSP90 [1] = test: HSP90 gene expression in rat brain tissue, qRT-PCR; format: in vivo; conditions: 12 mg/kg oral
Procedure: […] Expression of selected HSPs was detected using qRT-PCR with expression of the GAPDH gene used as the control. To represent the effect of CNS-102 on HSP expression, mean fold change is calculated as CNS-102 treated/PBS treated for each HSP at each time point.

Rap1 = test: Prenylation of Rap1 in Neuro2A cells, western blotting; format: cell-based, mouse; conditions: 100 nM
Summary of the method: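 Mouse Neuro2A cells in DMEM/10% FBS were treated with compound for 24 h, then GGTI-298 was added for a further 24 h. Un-prenylated and total Rap1 were quantified by western blot, normalized to GAPDH; the un-prenylated/total ratio was expressed as percent of GGTI-only control, mean of two biological repeats.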

[2] = system: Rat primary motor neurons; test: Axon extension of rat primary motor neurons; format: cell-based; conditions: 72 hrs; read-out: EC50 (cells extending axons)
Procedure: Rat primary motor neurons were isolated from embryonic spinal cords in accordance with the method of Henderson et al.; J Cohen and G P Wilkin (ed.), Neural Cell Culture, (1995) p69-81 which is herein incorporated by reference in its entirety. Briefly, spinal cords were dissected from day 15 embryo (E15) and incubated in a trypsin solution, and followed by DNase treatment to release spinal cord cells from tissue fragments. The cell suspension was centrifuged to remove tissue fragments. Then motor neurons were enriched by density gradient centrifugation.
Motor neurons were cultured in serum-free neurobasal medium containing insulin, forskolin, 3-isobutyl-1-methylxanthine, neurotrophic factors, Bovine serum albumin, selenium, transferrin, putrescine, progesterone and B27 supplement in tissue culture plate coated with poly-ornithine and laminin.
Rat primary motor neurons were prepared and cultured as described in Example 13. […] The cells extending axons were counted in five different fields for each treatment after 72 hrs. Percentage of positive cells relative to total cells in the same magnification field was calculated and the results were expressed as means+/−standard deviations, n=5.

HSP90 [3] = test: HSP90 expression in neuro2A cells, western blot; format: cell-based, mouse; conditions: 48 hours, GGTI-298
Procedure: Differentiation was induced and cells incubated with geranylgeranyl transferase I inhibitor, GGTI-298. Cells were harvested and lysates were prepared and analyzed by western blot for HSP70 and HSP90. Western signals in the absence of the compounds were normalized as 1.00.

SOD1 mice = test: CatWalk gait analysis in SOD1 mice; format: in vivo, mouse; set-up: Hind stride length, Mean/average: unit not given beside the values
Text: Prior to onset, there was little to no difference between the transgenic and wildtype groups. Transgenic animals tended to rely more on front paws for movement as weakness and paralysis in the hind paws progressed. This began to show around timepoint P100, coinciding with the expected onset of disease. This impairment was seen through changes in front and hind paw step cycle, print area, mean intensity, and base of support.

Sprague Dawley rats = test: Kainic acid stereotactic hippocampus injection model, fraction of cells damaged; format: in vivo, rat; conditions: for Difference of mean fraction damaged to pooled PBS / Mean fraction of cells damaged in the hippocampus: 12 mg/kg oral; for Mean fraction of cells damaged in the hippocampus: pooled PBS 0.187
Procedure: CNS-102 was administered orally to Sprague Dawley rats at 12 mg/kg. After dosing, KA was stereotactically injected into the hippocampus at 24, 48, 72, 96 and 168 hours to induce neuron damage. After 24 h, hippocampus tissue was collected, stained, and imaged. The scans were analyzed by Image J to calculate the fraction of cells having KA-induced damage. Average fraction damaged in the hippocampus from ten animals for each treatment (PBS vs. 12 mg/kg CNS-102) by time (24, 48, 72, 96 and 168 hours) combination was estimated with PROC MIXED in SAS. Comparisons of the CNS-102 treatment groups to the pooled PBS treatment at the different times can be made, giving the results tabulated below.
The fraction of cells damaged in the kainic acid model was determined on 130 rats, each receiving one dose of CNS-102 at either 0, 1, 3, 6, 12 or 24 mg/kg. PBS was used for dosing at 0 mg/kg. The linear model of the log10 percent damage versus concentration is graphically shown FIG. 5.
After dosing, KA was stereotactically injected into the hippocampus at 72 hours to induce neuron damage. After 24 h, hippocampus tissue was collected, stained, and imaged. The scans were analyzed by Image J to calculate the fraction of cells having KA-induced damage.
The indicated compounds or vehicle control were orally dosed to Sprague-Dawley rats, and Kainic acid was injected. After dosing, KA was stereotactically injected into the hippocampus at 72 hours to induce neuron damage. After 24 h, hippocampus tissue was collected, stained, and imaged. The scans were analyzed by Image J to calculate the fraction of cells having KA-induced damage. Neurons damaged by Kainic acid (mean of hippocampus CA3 neurons damaged) were quantified.

RhoA = test: Active RhoA to total RhoA in Neuro2A cells (G-LISA, ELISA); format: cell-based, mouse; conditions: 48 hrs, active RhoA to total RhoA as percentage of DMSO treatments
Procedure: Mouse neuroblastoma Neuro2A cells were cultured in DMEM supplemented with 10% FBS for 24 hrs. […] Cell lysates were quantified and subjected either to active RhoA assay using G-LISA RhoA activation Assay Biochem Kit (Cytoskeleton Inc), or to total RhoA assay using Total RhoA ELISA Kit (Cytoskeleton Inc). The results were calculated as ratio of active RhoA to total RhoA and averaged from 3 biological repeats of one experiment with background subtraction. The data was presented as percentage of DMSO treatments.

CC(=O)CC/C=C(\C)CC/C=C(\C)CC/C=C(\C)CCC=C(C)C [CNS-102]
HSP90 mean fold change (CNS-102 treated/PBS treated), mean ± SD (HSP90 [1]; 24 h): 1.32 ± 0.95 | HSP90 mean fold change (CNS-102 treated/PBS treated), mean ± SD (HSP90 [1]; 48 h): 1.16 ± 0.55 | HSP90 mean fold change (CNS-102 treated/PBS treated), mean ± SD (HSP90 [1]; 72 h): 2.59 ± 1.27 | HSP90 mean fold change (CNS-102 treated/PBS treated), mean ± SD (HSP90 [1]; 96 h): 1.68 ± 0.72 | prenylation of Rap1 compared to control (Rap1; student's t-test, P=0.08): slightly increase the prenylation of Rap1 | unprenylated/total RAP1 (%) (Rap1; with GGTI-298, percentage of control (GGTI only)): 59% | EC50 [2]: 920 pM | HSP90 western signal (absence of compounds = 1.00) (HSP90 [3]; 100 nM): 3.29 | HSP90 western signal (absence of compounds = 1.00) (HSP90 [3]; 1 μM): 1.74 | HSP90 western signal (absence of compounds = 1.00) (HSP90 [3]; 10 μM): 1.21 | Run Duration, CNS-102 - vehicle difference of averages (SOD1 mice; P120): −1.68 | Stride Length, CNS-102 - vehicle difference of averages (SOD1 mice; P120): 1.46 | Swing Speed, CNS-102 - vehicle difference of averages (SOD1 mice; P120): 14.58 | Run Duration, Mean/average (SOD1 mice; P-42, SOD1/Vehicle 1.484746201): 1.685 | Hind stride length, Mean/average (SOD1 mice; P-42, SOD1/Vehicle 6.359471205): 6.082 | Swing speed, Mean/average (SOD1 mice; P-42, SOD1/Vehicle 45.8515272): 41.18 | Run Duration, Mean/average (SOD1 mice; P-124 (+/−) 3, SOD1/Vehicle 3.461605345): 1.976 | Hind stride length, Mean/average (SOD1 mice; P-124 (+/−) 3, SOD1/Vehicle 3.607909383): 5.476 | Swing speed, Mean/average (SOD1 mice; P-124 (+/−) 3, SOD1/Vehicle 23.93413455): 35.63 | Difference of mean fraction damaged to pooled PBS (Sprague Dawley rats; KA at 24 hours): 0.005 | Difference of mean fraction damaged to pooled PBS (Sprague Dawley rats; KA at 48 hours): −0.064 | Difference of mean fraction damaged to pooled PBS (Sprague Dawley rats; KA at 72 hours): −0.092 | Difference of mean fraction damaged to pooled PBS (Sprague Dawley rats; KA at 96 hours): −0.056 | Difference of mean fraction damaged to pooled PBS (Sprague Dawley rats; KA at 168 hours): −0.026 | Mean fraction of cells damaged in the hippocampus (Sprague Dawley rats; KA injected at 24 hours): 0.193 | Mean fraction of cells damaged in the hippocampus (Sprague Dawley rats; KA injected at 48 hours): 0.123 | Mean fraction of cells damaged in the hippocampus (Sprague Dawley rats; KA injected at 72 hours): 0.096 | Mean fraction of cells damaged in the hippocampus (Sprague Dawley rats; KA injected at 96 hours): 0.131 | Mean fraction of cells damaged in the hippocampus (Sprague Dawley rats; KA injected at 168 hours): 0.162 | Mean of Hippocampus CA3 Neurons Damaged (Sprague Dawley rats; 24 mg/Kg rat oral, KA at 72 hours): 19.8182 Arbitrary units | minimal effective dose (Sprague Dawley rats; one dose of 0, 1, 3, 6, 12 or 24 mg/kg, kainic acid model): 12 mg/kg | timepoint of maximal protection effect (Sprague Dawley rats; single dose of 12 mg/kg): 72 h | % Relative RhoGTPase Activity (RhoA; CNS-102 10 nM): 103.6% | % Relative RhoGTPase Activity (RhoA; CNS-102 100 nM): 120.1%
